Data as given in article PMC3411725 (PLoS ONE, 2012).

Assays:
AroAE.coli [1] = target: T1, AroAE.coli (Escherichia coli, UniProt P0A6D3, G96A); assay: biochemical
T1 construct: gene aroA

AroAE.coli [2] = target: T1, AroAE.coli; assay: biochemical; remark: listed apart in the source
AroAE.coli [3] = target: T2, AroAE.coli (Escherichia coli, UniProt P0A6D3); assay: malachite green phosphate release assay, dose-response fit; format: biochemical; settings: read-out: IC50 [glyphosate] ^e
T2 construct: gene aroA; overexpressed and purified as P1 (pET-28a, His-tag, E. coli BL21(DE3), HisTrap)
T2 sequence (P0A6D3 1-427): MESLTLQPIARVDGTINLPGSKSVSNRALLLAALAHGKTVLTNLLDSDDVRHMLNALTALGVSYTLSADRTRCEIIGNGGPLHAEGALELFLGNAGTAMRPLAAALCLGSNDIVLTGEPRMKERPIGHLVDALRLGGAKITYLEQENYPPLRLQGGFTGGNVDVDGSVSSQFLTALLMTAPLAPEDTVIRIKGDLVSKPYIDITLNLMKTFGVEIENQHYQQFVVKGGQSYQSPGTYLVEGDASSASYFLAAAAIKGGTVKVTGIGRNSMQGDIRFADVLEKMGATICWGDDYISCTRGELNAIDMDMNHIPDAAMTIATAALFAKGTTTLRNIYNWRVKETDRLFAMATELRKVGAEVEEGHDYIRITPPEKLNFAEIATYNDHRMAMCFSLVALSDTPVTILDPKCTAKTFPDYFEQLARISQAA

AroAE.coli [4] = target: T2, AroAE.coli; assay: malachite green phosphate release assay, Lineweaver-Burk; format: biochemical; settings: read-out: K i [glyphosate] ^d
[5] = substrate: C=C(OP(=O)(O)O)C(=O)O; assay: as above; format: biochemical, Escherichia coli; settings: 1 mM S3P, 50 mM HEPES pH 7.0, 28°C

In the case of `O=C(O)CNCP(=O)(O)O` [glyphosate], the Ki (AroAE.coli [1]) is reported as 219.3 ± 1.9 µM, the IC50 (AroAE.coli [2]) is reported as 220 ± 20 µM and the IC50 (AroAE.coli [3]) is reported as 50 ± 10 µM. The Ki (AroAE.coli [4]) was 1.4 ± 0.1 µM.

B1: AroAE.coli (Escherichia coli K-12) (protein)
chain: T2 sequence (P0A6D3 1-427)
notes: overexpressed and purified as P1 (pET-28a, His-tag, E. coli BL21(DE3), HisTrap)
Molecule B1 has a Km [5] of 65.8 ± 5.6 µM.
